According to patent publication US11840528B2 (Hoffmann-La Roche Inc., priority 2018, dated 2023):

Assays:
[1] = target: T1, h-GABA-A α5β3γ2 (Homo sapiens, UniProt P18507+P31644); test: Two-electrode voltage clamp electrophysiology in Xenopus laevis oocytes expressing GABAA receptors, modulation of GABA EC20 current; assay type: cell-based; design: host or cells: Xenopus laevis oocytes micro-injected with RNA transcripts of the subunits; conditions: Table 1; for Efficacy (GABA) %: % modulation of GABA EC20 = 100*(Fold increase-1); for Fold increase h-GABA-A α5β3γ2 oocyte: test compound at approx. 30 fold its Ki, GABA at EC20
Description: Xenopus laevis oocytes at maturation stages V-VI were used for the expression of cloned mRNA encoding GABAA receptor subunits. Oocytes ready for RNA micro-injection were bought from Ecocyte, Castrop-Rauxel, Germany and stored in modified Barth's medium (composition in mM: NaCl 88, KCl 1, NaHCO32.4, HEPES 10, MgSO4 0.82, CaNO3 0.33, CaCl2 0.33, pH=7.5) at 20° C. until the experiment.
Oocytes were plated in 96-well plates to be used in an automated instrument (Robo-ocyte, MultiChannelSystems, Reutlingen, Germany) for microinjection and electrophysiological recordings. Approximately 50 nl of an aqueous solution containing the RNA transcripts for the subunits of the desired GABAA receptor was injected into each oocyte. RNA concentrations ranged between 0.3 and 16 ng/μl/subunit and were adjusted in pilot experiments to obtain GABA responses of a suitable size and a maximal effect of the reference modulator, Beta-CCM (β-CCM), a betacarboline negative allosteric modulator (NAM) at the GABAA receptor benzodiazepine (BZD) binding site or Midazolam, a benzodiazepine positive allosteric modulator (PAM) at the GABAA receptor benzodiazepine (BZD) binding site. The concentration of the γ2 subunit encoding RNA usually was 5- to 10-fold higher than the RNAs encoding the other subunits. Oocytes were kept in modified Barth's medium (composition in mM: NaCl 88, KCl 1, NaHCO3 4, HEPES 10, MgSO4 0.82, CaNO3 0.33, CaCl2) 0.33, pH=7.5) at 20° C. until the experiment.
Electrophysiological experiments were performed on days 3 to 5 after the micro-injection of mRNA. During the experiment the oocytes were constantly superfused by a solution containing (in mM) NaCl 90, KCl 1, HEPES 5, MgCl2 1, CaCl2) 1 (pH 7.4). Oocytes were impaled by two glass microelectrodes (resistance: 0.4 MΩ) which were filled with a solution containing KCl 1M+K-acetate 1.5 M and voltage-clamped to −80 mV. The recordings were performed at room temperature using the Roboocyte two-electrode voltage clamp system (Multichannelsystem). After an initial equilibration period of 1.5 min GABA was added for 1.5 min at a concentration evoking approximately 20% of a maximal current response (EC20). After another rest interval of 2.5 min GABA was again added evoking a response of similar amplitude and shape. 0.5 min after the onset of this second GABA application the test compound, at a concentration corresponding to approximatively 30 fold its Ki, was added while GABA was still present. Current traces were recorded at a digitization rate of 10 Hz during and shortly before and after the GABA application.
Each compound and concentration was tested on at least 3 oocytes. Different oocytes were used for different compound concentrations. β-CCM, a negative allosteric modulator, or Midazolam, a positive allosteric modulators, were tested on a few (3-6) oocytes on each 96-well plate for a positive control at a maximally effective. β-CCM inhibited the GABA-evoked current by approximatively 50% (Fold increase ˜0.5), while Midazolam potentiated the GABA-induced current by approximatively 150% (Fold increase ˜2.5).
For the analysis, the digitized current traces of the first and second GABA response were superimposed and, if necessary, rescaled to equal maximal amplitudes. The ratio between the two responses during the time interval of test compound application was calculated point by point. The extremum of the resulting “ratio trace” was taken as the efficacy (“Fold increase”) of the compound expressed as “% modulation of GABA EC20” (100*(Fold increase-1)).

[2] = target: T1, h-GABA-A α5β3γ2; test: [3H]flumazenil competition binding assay, membranes of HEK293 cells expressing GABAA receptors; conditions: displacement of [3H]-Flumazenil 0.5 nM, HEK293 cells expressing human receptors, mean of two determinations; Table 1
Description: The affinity of compounds at GABAA receptor subtypes was measured by competition for [3H]flumazenil (85 Ci/mmol; Roche) binding to HEK293 cells expressing rat (stably transfected) or human (transiently transfected) receptors of composition α1β3γ2, α2β3γ2, α3β3γ2 and α5β3γ2.
Cell pellets were suspended in Krebs-tris buffer (4.8 mM KCl, 1.2 mM CaCl2), 1.2 mM MgCl2, 120 mM NaCl, 15 mM Tris; pH 7.5; binding assay buffer), homogenized by polytron for ca. 20 sec on ice and centrifuged for 60 min at 4° C. (50000 g; Sorvall, rotor: SM24=20000 rpm). The cell pellets were resuspended in Krebs-tris buffer and homogenized by polytron for ca. 15 sec on ice. Protein was measured (Bradford method, Bio-Rad) and aliquots of 1 mL were prepared and stored at −80° C.
Assays were incubated to equilibrium for 1 hour at 4° C. and harvested onto GF/C uni-filters (Packard) by filtration using a Packard harvester and washing with ice-cold wash buffer (50 mM Tris; pH 7.5). After drying, filter-retained radioactivity was detected by liquid scintillation counting. Ki values were calculated using Excel-Fit (Microsoft) and are the means of two determinations.

| SMILES | Efficacy (GABA) % [1] [%] | Fold increase h-GABA-A α5β3γ2 oocyte [1] | Ki [2] [nM] |
| --- | --- | --- | --- |
| CCc1onc(-c2ccc(C)nn2)c1Cn1ncc(N2CC3(CCC(F)CO3)C2)cc1=O (single isomer, unassigned) [Example 325] | 178 | 2.78 | 3.2 |
| Cc1ccc(-c2noc(CF)c2Cn2ncc(N3CC4(CCC(F)CO4)C3)cc2=O)nn1 (single isomer, unassigned) [Example 329] | 164 | 2.64 | 58.7 |
| Cc1onc(-c2ccc(Cl)nc2)c1Cn1ncc(N2CCC3(CC2)CC(F)CCO3)cc1=O (single isomer, unassigned) [Example 330] | 159 | 2.59 | 48.8 |
| Cc1onc(-c2ccc(Cl)nc2)c1Cn1ncc(N2CCC3(CC2)CC(F)CCO3)cc1=O (single isomer, unassigned) [Example 331] | 159 | 2.59 | 17.6 |
| Cc1onc(-c2ncc(C(F)(F)F)cn2)c1Cn1ncc(N2CC3(CCC(F)CO3)C2)cc1=O (single isomer, unassigned) [Example 332] | 65 | 1.65 | 2.6 |
| CC(=O)N(C)[C@H]1CCN(c2cnn(Cc3c(-c4ccc(C)nc4)noc3C)c(=O)c2)C1 [Example 1, N-methyl-N-[(3S)-1-[1-[[5-methyl-3-(6-methyl-3-pyridyl)isoxazol-4-yl]methyl]-6-oxo-pyridazin-4-yl]pyrrolidin-3-yl]acetamide] | 63 | 1.63 | 10.2 |

Second part, the molecule after the results:

| Efficacy (GABA) % [1] [%] | Fold increase h-GABA-A α5β3γ2 oocyte [1] | Ki [2] [nM] | SMILES |
| --- | --- | --- | --- |
| 226 | 3.26 | 24.8 | Cc1ccc(-c2noc(C)c2Cn2ncc(N3CC4(CCC(C(F)(F)F)CO4)C3)cc2=O)nn1 (single isomer, unassigned) [Example 320] |
| 129 | 2.29 | 6.3 | Cc1ccc(-c2noc(C)c2Cn2ncc(N3CC4(CCC(C(F)(F)F)CO4)C3)cc2=O)nn1 (single isomer, unassigned) [Example 321] |
| 76 | 1.76 | 43.1 | Cc1onc(-c2ccc(Cl)nc2)c1Cn1ncc(N2CC3(CCC(C(F)(F)F)CO3)C2)cc1=O (single isomer, unassigned) [Example 323] |
| 164 | 2.64 | 1.9 | Cc1ccc(-c2noc(C)c2Cn2ncc(N3CCC4(CC3)CC(F)CCO4)cc2=O)nn1 (single isomer, unassigned) [Example 326] |
| 122 | 2.22 | 3.6 | Cc1ccc(-c2noc(C)c2Cn2ncc(N3CCC4(CC3)CC(F)CCO4)cc2=O)nn1 (single isomer, unassigned) [Example 327] |
| 155 | 2.55 | 26.2 | CC(=O)N(C)[C@@H]1CCN(c2cnn(Cc3c(-c4ccc(C)nc4)noc3C)c(=O)c2)C1 [Example 2, N-methyl-N-[(3R)-1-[1-[[5-methyl-3-(6-methyl-3-pyridyl)isoxazol-4-yl]methyl]-6-oxo-pyridazin-4-yl]pyrrolidin-3-yl]acetamide] |
| 110 | 2.1 | 10.6 | Cc1ccc(-c2noc(C)c2Cn2ncc(N3CC[C@@H](O)C3)cc2=O)cn1 [Example 3, 5-[(3R)-3-hydroxypyrrolidin-1-yl]-2-[[5-methyl-3-(6-methyl-3-pyridyl)isoxazol-4-yl]methyl]pyridazin-3-one] |
| 145 | 2.45 | 8.6 | Cc1ccc(-c2noc(C)c2Cn2ncc(N3CC[C@H](O)C3)cc2=O)cn1 [Example 4, 5-[(3S)-3-hydroxypyrrolidin-1-yl]-2-[[5-methyl-3-(6-methyl-3-pyridyl)isoxazol-4-yl]methyl]pyridazin-3-one] |
